Measured values published in US7029713B2, “Peptide extract of lupine and pharmaceutical or cosmetic or nutritional composition comprising the same” (Laboratoires Pharmascience, priority 1999, dated 2006).

Legend:
[1] = system: purified collagenase (type III, fraction A); assay: Anticollagenase activity in organotypic model of human skin sections (Masson trichrome, morphology and image analysis); format: biochemical; set-up: key to Enzymatic digestion (morphological observation): 0: zero enzymatic digestion; +: weak enzymatic digestion; ++: average enzymatic digestion; +++: strong enzymatic digestion; conditions: phosphoramidon 10^−3 M; collagenase 50 IU/ml, 3 hours 37° C.
Protocol: The anticollagenase activity of a test product can be studied in vitro in an organotypic model of human skin. The principle of the test is as follows: application of purified collagenase to sections is accompanied by degradation of the endogenous collagen fibers. The collagen fibers are then stained with Masson trichrome. The digestion of the endogenous collagen fibers by the purified collagenase is evaluated qualitatively by morphological observation and quantitatively by image analysis. A product which has anticollagenase activity will partially or totally preserve the integrity of the collagen fibers placed in the presence of the enzyme.
Three dilutions were tested: 0.01; 0.1 and 1% (v/v). […]
After incubation, the sections were rinsed with the incubation medium and stained with Masson trichrome. The activity of the enzyme in the presence and absence of the extract, of the ethanol or of the reference product was evaluated by microscopic observation and scored according to the following scheme:
The activity of the collagenase in the presence and absence of the test products, of the ethanol or of the reference product was evaluated by image analysis. […] The results were expressed as a percentage of intact collagen fibers per optical field. […]
For the reference product (directly taken up in the vehicle), the percentage inhibition is calculated using the following formula: […]

[2] = system: MMP-9 in human fibroblasts irradiated with UVA rays; assay: Amount of MMP-9 secreted by UVA-irradiated human dermal fibroblasts (ELISA); format: cell-based; conditions: Fibroblast, light or radiation study, 80 μg/ml, read-out: inhibition of the secretion of MMP-9 by the irradiated fibroblasts
Protocol: (§1) The study was carried out on human dermal fibroblasts in monolayer culture. The cells were pre-incubated for 1 hour at 37° C. in the presence of the reference products and of the test product. Then, the cells were irradiated with a single dose of 10 J/cm^2 of UVA, in the presence of the product to be tested and of the reference products.
(§2) Immediately after irradiation, the cells were incubated for 48 h at 37° C., still in the presence of the product to be tested and of the reference products.
(§3) The various MMPs are tested in the culture media using specific ELISA kits (Amersham).
(§4) 1,10-Phenanthroline, which is a nonspecific inhibitor of MMPs, and was tested at 80 μg/ml, was used as a reference product.
(§5) A 10 μg/ml retinoic acid+10 ng/ml EGF mixture was used for its abilities to induce TIMP1 (TIMP1, Tissue Inhibitor of MMP, physiological inhibitor of MMPs).
(§6) A stock solution containing 10% (w/v) of lupin peptides was prepared in deionized water. Using this solution, dilutions were prepared in the fibroblast culture medium. The peptide extract of lupin was tested at 0.5; 1 and 2% (v/v).
(§7) Irradiated and nonirradiated control cultures were incubated in parallel, in the absence of the reference products and of the test product. […]
(§8) They are given in the table below and the results are expressed as % relative to the “irradiated cells” group.

[3] = system: MMP-1 in human fibroblasts irradiated with UVA rays; assay: Amount of MMP-1 secreted by UVA-irradiated human dermal fibroblasts (ELISA); format: cell-based; conditions: Fibroblast, light or radiation study, 80 μg/ml, read-out: inhibition of the secretion of MMP-1 by the irradiated fibroblasts
Protocol: as §1, §2, §3, §4, §5, §6, §7, §8

purified human MMP-2 = molecular target: T1, purified human MMP-2 (Homo sapiens, UniProt P08253); assay: Anti-MMP-2 activity, DQ-gelatin fluorimetry; format: biochemical
T1 construct: purchased BOEHRINGER MANNHEIM; host or cells: purified from human fibrosarcoma (natural, not recombinant)
T1 sequence (P08253 110-660): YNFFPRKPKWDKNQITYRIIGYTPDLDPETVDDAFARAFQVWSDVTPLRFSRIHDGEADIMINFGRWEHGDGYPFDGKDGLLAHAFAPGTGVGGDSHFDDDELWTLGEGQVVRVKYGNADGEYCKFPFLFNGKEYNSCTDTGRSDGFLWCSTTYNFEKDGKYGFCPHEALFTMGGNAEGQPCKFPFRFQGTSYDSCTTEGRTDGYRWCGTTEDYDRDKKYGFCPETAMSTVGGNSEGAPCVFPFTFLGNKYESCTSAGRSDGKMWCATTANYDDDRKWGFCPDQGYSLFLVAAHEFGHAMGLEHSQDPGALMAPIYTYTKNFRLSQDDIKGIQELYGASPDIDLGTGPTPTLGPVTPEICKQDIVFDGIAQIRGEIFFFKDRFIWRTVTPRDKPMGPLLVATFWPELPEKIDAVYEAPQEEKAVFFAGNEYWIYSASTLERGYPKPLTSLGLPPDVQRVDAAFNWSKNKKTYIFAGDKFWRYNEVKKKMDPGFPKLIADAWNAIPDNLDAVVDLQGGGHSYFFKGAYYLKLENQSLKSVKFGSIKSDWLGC
Protocol: (§9) The anti-MMP-2 and anti-MMP-9 activity of the test products was measured in vitro in a biochemical model of the screening type, based on the use of a purified human MMP-2 and of a recombinant human MMP-9 and of the substrate for the latter, gelatin conjugated to fluorescein (EnzChek™ gelatinase/collagenase kit, MOLECULAR PROBES).
The MMP-2 purified from human fibrosarcoma came from BOEHRINGER MANNHEIM.
(§10) The DQ-gelatin purified from porcine skin and conjugated to fluorescein was supplied in the EnzChek™ gelatinase/collagenase kit (MOLECULAR PROBES).
The reaction buffer for studying the activity of MMP-2 (RBf1) consisted of 50 mM of Tris-HCl, 0.05% (w/v) of Triton X100 and 5 mM of CaCl2, pH 7.5.
(§11) 1,10-Phenanthroline was solubilized in the reaction buffers RBf1 and RBf2. It was tested at 8 and 80 μg/ml.
(§12) Peptide extracts A, B and C were solubilized in the reaction buffers RBf1 and RBf2. They were tested at 0.01; 0.1 and 1% (w/v). […]
(§13) After 24 hours, the signal corresponding to the degradation of the DQ-gelatin was measured by fluorimetry (excitation: 485 nm and emission: 595 nm) For each sample, the value obtained for the “samples without enzyme” was subtracted.
(§14) The results were expressed as fluorescence units per sample and as percentage variation relative to the control group. […]

recombinant human MMP-9 = molecular target: T2, recombinant human MMP-9 (Homo sapiens, UniProt P14780); assay: Anti-MMP-9 activity, DQ-gelatin fluorimetry; format: biochemical
T2 construct: purchased R&D SYSTEMS
Protocol: as §9
The recombinant human MMP-9 came from R&D SYSTEMS.
as §10
The reaction buffer for studying the activity of MMP-9 (RBf2) consisted of 50 mM of Tris-HCl, 0.05% (w/v) of Brij 35 and 5 mM of CaCl2, pH 7.4.
as §11, §12, §13, §14

[4] = system: MMP-3 in human fibroblasts irradiated with UVA rays; assay: Amount of MMP-3 secreted by UVA-irradiated human dermal fibroblasts (ELISA); format: cell-based; conditions: Fibroblast, light or radiation study, 80 μg/ml, read-out: inhibition of the secretion of MMP-3 by the irradiated fibroblasts
Protocol: as §1, §2, §3, §4, §5, §6, §7, §8

T2 sequence (P14780 94-707): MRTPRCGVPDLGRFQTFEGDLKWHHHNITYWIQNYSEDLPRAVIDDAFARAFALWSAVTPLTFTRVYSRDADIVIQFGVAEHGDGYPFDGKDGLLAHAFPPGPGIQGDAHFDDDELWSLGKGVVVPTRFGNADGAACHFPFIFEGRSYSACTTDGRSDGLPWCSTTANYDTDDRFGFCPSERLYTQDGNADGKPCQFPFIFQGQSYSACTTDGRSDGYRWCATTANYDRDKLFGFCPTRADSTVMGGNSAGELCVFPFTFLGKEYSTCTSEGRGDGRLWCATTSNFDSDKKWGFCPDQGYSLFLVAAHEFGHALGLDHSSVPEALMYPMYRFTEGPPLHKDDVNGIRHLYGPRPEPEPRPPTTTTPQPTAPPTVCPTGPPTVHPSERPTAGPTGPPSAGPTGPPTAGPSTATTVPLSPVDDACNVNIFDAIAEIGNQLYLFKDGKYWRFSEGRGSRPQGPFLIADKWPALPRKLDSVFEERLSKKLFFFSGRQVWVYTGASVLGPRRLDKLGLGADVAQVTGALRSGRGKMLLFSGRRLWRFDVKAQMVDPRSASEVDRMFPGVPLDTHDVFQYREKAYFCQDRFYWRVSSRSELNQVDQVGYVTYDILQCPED

| SMILES | % inhibition of the collagenase activity (image analysis) [1] | Enzymatic digestion (morphological observation) [1] | inhibition at 80 µg/mL [2] | inhibition at 80 µg/mL [3] | inhibition at 8 µg/mL (purified human MMP-2; 8 μg/ml) | inhibition at 80 µg/mL (purified human MMP-2; 80 μg/ml) | inhibition at 8 µg/mL (recombinant human MMP-9; 8 μg/ml) | inhibition at 80 µg/mL (recombinant human MMP-9; 80 μg/ml) | inhibition at 80 µg/mL [4] |
| --- | --- | --- | --- | --- | --- | --- | --- | --- | --- |
| CC(C)C[C@H](NP(=O)(O)O[C@@H]1O[C@@H](C)[C@H](O)[C@@H](O)[C@H]1O)C(=O)N[C@@H](Cc1c[nH]c2ccccc12)C(=O)O [Phosphoramidon] | 16% | + |  |  |  |  |  |  |  |
| c1cnc2c(c1)ccc1cccnc12 [1,10-phenanthroline] |  |  | 92% | 99% | 32% | 73% | 80% | 76% | 97% |
